Reference: publication PMC5806375, “Characterization and expression analysis of a newly identified glutathione S-transferase of the hard tick Haemaphysalis longicornis during blood-feeding” (Parasites & Vectors, 2018)

Tests used:
[1] = molecular target: T1, HlGST2 (recombinant HlGST2, rHlGST2) (Haemaphysalis longicornis, UniProt A0A2Z6FA39); test: absorbance at […] nm, Lineweaver-Burk plot; format: biochemical; conditions: 5 mM GSH, CDNB 0.125-2 mM, 100 mM Tris-HCl pH 7.5, 25 °C, 5% methanol; read-out: CDNB kinetic constant^a
T1 construct: gene GST
T1 sequence (A0A2Z6FA39 1-230): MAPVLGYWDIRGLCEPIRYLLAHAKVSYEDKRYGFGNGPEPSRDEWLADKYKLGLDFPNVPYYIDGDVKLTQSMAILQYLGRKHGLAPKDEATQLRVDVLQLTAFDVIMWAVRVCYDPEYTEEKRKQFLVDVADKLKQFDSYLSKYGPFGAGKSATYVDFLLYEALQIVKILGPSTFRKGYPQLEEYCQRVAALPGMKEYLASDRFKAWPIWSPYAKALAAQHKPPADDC

[2] = molecular target: T2, HlGST (recombinant HlGST, rHlGST) (Haemaphysalis longicornis, UniProt Q6JVN0); test: absorbance at […] nm, Lineweaver-Burk plot; format: biochemical; conditions: 5 mM GSH, CDNB 0.125-2 mM, 100 mM Tris-HCl pH 7.5, 25 °C, 5% methanol; read-out: CDNB kinetic constant^a
T2 construct: gene GST
T2 sequence (Q6JVN0 1-223): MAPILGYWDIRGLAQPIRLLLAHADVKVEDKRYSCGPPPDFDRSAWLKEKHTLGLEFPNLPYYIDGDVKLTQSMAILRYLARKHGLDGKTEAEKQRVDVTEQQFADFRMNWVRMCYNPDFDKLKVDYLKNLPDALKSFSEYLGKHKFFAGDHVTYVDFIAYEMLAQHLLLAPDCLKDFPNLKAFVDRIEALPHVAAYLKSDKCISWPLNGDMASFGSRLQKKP

O=[N+]([O-])c1ccc(Cl)c([N+](=O)[O-])c1 [CDNB, 1-chloro-2,4-dinitrobenzene]
Km [1]: 610 ± 200 µM
Km [2]: 820 ± 140 µM
